# Where “and” joins values, the source holds several entries; their conditions need not be identical. Identical values can stand only once.
# Legend:
# [1] = system: CHO-K1 cells; test: Toxicity in RRA (loss of luciferase signal); details: toxicity = loss of signal (<0.75 fold increase)
# [2] = system: beta amyloid production; test: Repressor Release Assay (RRA); format: cell-based; details: for APPI % of Example #98: relative to Example 98
# Experimental: CHO-K1 cells were cultured in whole DMEM media (DMEM—High Glucose with 10% fetal bovine serum, 1% Non-essential Amino Acids, and 1% Penicillin-Streptomycin) at 37° C. with 5% CO2. Two million cells were plated into 10-cm dishes 24 hrs prior to transfection.
# Transient transfections were completed as recommended by Gibco BRL using their Lipofectamine Plus system. First, 6 μg of pRSVO-luc and 6 μg of APP-lacI construct DNA were added to 460 μL Opti-Mem transfection media and incubated with 30 μL Plus reagent for 15 minutes. Then, a lipid mixture of 40 μL Lipofectamine reagent and 460 μL Opti-Mem transfection media was incubated with the DNA-Plus reagent mixture for 15 minutes. During the DNA-lipid incubation, the CHO-K1 cells were washed once and covered in 5.0 mL DMEM media without Penicillin-Streptomycin. The DNA-lipid preparation was then layered onto these cells and incubated at 37° C. overnight.
# […] transfected cells per well (100 μL total volume) were plated into sterile, opaque Packard 96-well Culture-Plates in clear DMEM whole media (DMEM—without phenol red) and incubated at 37° C. with 5% CO2 for 3-5 hours.
# Compounds were diluted using two different protocols; one protocol was used for compounds supplied neat (weighed powder in vial) and the other protocol was used for compounds supplied in solution (20 mM in DMSO in 96-well plates). For both protocols, 25 mM Hepes and 25 mM Hepes/1% DMSO were prepared fresh to be used as diluent. The Hepes/DMSO was used as the diluent control on all experimental plates.
# The following table depicts the steps for compound dilution (please note that the last step was the addition of compound to cells/media in tissue culture plate).
# Because some compounds were present in 96-well format at 20 mM, the following represents the protocol for their dilution (note that an average molecular weight of these compounds was used to calculate these dilutions and as above, the last step was the addition of compound to cells/media in tissue culture plate).
# Once the compounds were diluted, they were applied in duplicate on cells in tissue culture plates (prepared above). Cells were incubated with compound at 37° C. with 5% CO2 for an additional 36-48 hours.
# Luciferase assays (LucLite reagent, Packard) were performed and were read on a Packard TopCount instrument. Media was removed from each 96-well plate and replaced with 100 μL PBS per well (with Mg^2+ and Ca^2+). An equal volume (100 μL) of the LucLite lysis/substrate buffer was added to each well and the plates were sealed and mixed in the dark on a rotary shaker for 15-30 minutes at room temperature. Luciferase readings were then taken on the TopCount instrument. Measurements were expressed as relative light units (RLU) and are calculated and analyzed in MS Excel as follows: […]
# [3] = Conc 20 μg/ml, luciferase activity over diluent control
# [4] = Conc 10 μg/ml, luciferase activity over diluent control
# [5] = Conc 20 μg/ml, luciferase activity over diluent control, read-out: APPI Fold Increase
compound,measurement,setting,value
"3,4-dibromo-N-[(11S)-1-(hydroxymethyl)-2,2-dimethylpropyl]benzenesulfonamide [Example 29]",(%)APPI Toxicity,[1]; Conc 20 μg/ml,1 (1=non-toxic)
same,APPI Fold Increase,[2]; [3],2.1 fold
same,APPI % of Example #98,[2]; Conc 20 μg/ml,49.5%
3-chloro-N-{(1S)-2-hydroxy-2-isopropenyl-3-methyl-1-[(18)-1-methylpropyl]-3-butenyl}benzenesulfonamide [Example 257],(%)APPI Toxicity,[1]; Conc 10 μg/ml,1 (1=non-toxic)
same,(%)APPI Toxicity,[1]; Conc 20 μg/ml,1 (1=non-toxic)
same,APPI Fold Increase,[2]; [4],2.54 fold
same,APPI % of Example #98,[2]; Conc 10 μg/ml,94.5%
same,APPI Fold Increase,[2]; [3],2.5 fold
same,APPI % of Example #98,[2]; Conc 20 μg/ml,68.8%
"3-chloro-N-{(1S,3E)-2-hydroxy-3-methyl-2-[(1 F)-1-methyl-1-propenyl]-1-[(1S)-1-methylpropyl]-3-pentenyl}benzenesulfonamide [Example 259]",(%)APPI Toxicity,[1]; Conc 0.3 μg/ml,1 (1=non-toxic)
same,(%)APPI Toxicity,[1]; Conc 1 μg/ml,1 (1=non-toxic)
same,(%)APPI Toxicity,[1]; Conc 3 μg/ml,1 (1=non-toxic)
same,(%)APPI Toxicity,[1]; Conc 10 μg/ml,1 (1=non-toxic)
same,(%)APPI Toxicity,[1]; Conc 20 μg/ml,1 (1=non-toxic)
same,APPI Fold Increase,"[2]; Conc 0.3 μg/ml, luciferase activity over diluent control",1.7 fold
same,APPI % of Example #98,[2]; Conc 0.3 μg/ml,31.1%
same,APPI Fold Increase,"[2]; Conc 1 μg/ml, luciferase activity over diluent control",1.7 fold
same,APPI % of Example #98,[2]; Conc 1 μg/ml,31.1%
same,APPI Fold Increase,"[2]; Conc 3 μg/ml, luciferase activity over diluent control",1.7 fold
same,APPI % of Example #98,[2]; Conc 3 μg/ml,31.5%
same,APPI Fold Increase,[2]; [4],2.19 fold and 1.6 fold and 1.7 fold
same,APPI Fold Increase,[2]; [3],4.4 fold
same,APPI % of Example #98,[2]; Conc 20 μg/ml,119.7%
"4-bromo-N-((1S,2 S)-1-{hydroxy-[4-(methylsulfanyl)phenyl]methyl}-2-methylbutyl) benzenesulfonamide [Example 163]",(%)APPI Toxicity,[1]; Conc 10 μg/ml,1 (1=non-toxic)
same,APPI Fold Increase,[2]; [4],1.64 fold
same,APPI % of Example #98,[2]; Conc 10 μg/ml,69.41%
"CC[C@H](C)[C@@H](CO)NS(=O)(=O)c1ccccc1Br [Example 1, 2-Bromo-N-[(1S,2S)-1-(hydroxymethyl)-2-methylbutyl]benzenesulfonamide]",(%)APPI Toxicity,[1]; Conc 20 μg/ml,1 (1=non-toxic)
same,fold induction at 20 µg/mL,[2]; [5],1.6
"CC[C@H](C)[C@@H](CO)NS(=O)(=O)c1cccc(Br)c1 [Example 2, 3-bromo-N-[(1S,2S)-1-(hydroxymethyl)-2-methylbutyl]benzenesulfonamide]",(%)APPI Toxicity,[1]; Conc 20 μg/ml,1 (1=non-toxic)
same,fold induction at 20 µg/mL,[2]; [5],2.8
"CC[C@H](C)[C@@H](CO)NS(=O)(=O)c1cccc(Cl)c1 [Example 3, 3-chloro-N-[(1S,2S)-1-(hydroxymethyl)-2-methylbutyl]benzenesulfonamide]",(%)APPI Toxicity,[1]; Conc 20 μg/ml,1 (1=non-toxic)
same,fold induction at 20 µg/mL,[2]; [5],3.6
"CC[C@H](C)[C@@H](CO)NS(=O)(=O)c1ccc(Cl)c2nnoc12 [Example 4, 4-chloro-N-[(1S,2S)-1-(hydroxymethyl)-2-methylbutyl]-1,2,3-benzoxadiazole-7-sulfonamide]",(%)APPI Toxicity,[1]; Conc 20 μg/ml,1 (1=non-toxic)
same,fold induction at 20 µg/mL,[2]; [5],1.5
"CC[C@H](C)[C@@H](CO)NS(=O)(=O)c1ccc(F)cc1Cl [Example 5, 2-chloro-4-fluoro-N-[(1S,2S)-1-(hydroxymethyl)-2-methylbutyl]benzenesulfonamide]",(%)APPI Toxicity,[1]; Conc 20 μg/ml,1 (1=non-toxic)
same,fold induction at 20 µg/mL,[2]; [5],2.5
"CC[C@H](C)[C@@H](CO)NS(=O)(=O)c1cc(Cl)ccc1OC [Example 6, 5-chloro-N-[(1S,2S)-1-(hydroxymethyl)-2-methylbutyl]-2-methoxybenzenesulfonamide]",(%)APPI Toxicity,[1]; Conc 20 μg/ml,1 (1=non-toxic)
same,fold induction at 20 µg/mL,[2]; [5],1.7
"CC[C@H](C)[C@@H](CO)NS(=O)(=O)c1c(C)cccc1Cl [Example 7, 2-chloro-N-[(1S,2S)-1-(hydroxymethyl)-2-methylbutyl]-6-methylbenzenesulfonamide]",(%)APPI Toxicity,[1]; Conc 20 μg/ml,1 (1=non-toxic)
same,fold induction at 20 µg/mL,[2]; [5],1.6
"CC[C@H](C)[C@@H](CO)NS(=O)(=O)c1cc(Cl)cc(Cl)c1 [Example 8, 3,5-dichloro-N-[(1S,2S)-1-(hydroxymethyl)-2-methylbutyl]benzenesulfonamide]",(%)APPI Toxicity,[1]; Conc 20 μg/ml,1 (1=non-toxic)
same,fold induction at 20 µg/mL,[2]; [5],2
"CC[C@H](C)[C@@H](CO)NS(=O)(=O)c1ccc(F)cc1F [Example 9, 2,4-difluoro-N-[(1S,2S)-1-(hydroxymethyl)-2-methylbutyl]benzenesulfonamide]",(%)APPI Toxicity,[1]; Conc 10 μg/ml,1 (1=non-toxic)
same,(%)APPI Toxicity,[1]; Conc 20 μg/ml,1 (1=non-toxic)
same,fold induction at 10 µg/mL,"[2]; Conc 10 μg/ml, luciferase activity over diluent control, read-out: APPI Fold Increase",2.2
same,fold induction at 20 µg/mL,[2]; [5],1.8
"CC[C@H](C)[C@@H](CO)NS(=O)(=O)c1ccc(F)cc1 [Example 10, 4-fluoro-N-[(1S,2S)-1-(hydroxymethyl)-2-methylbutyl]benzenesulfonamide]",(%)APPI Toxicity,[1]; Conc 20 μg/ml,1 (1=non-toxic)
same,fold induction at 20 µg/mL,[2]; [5],3.3
"CC[C@H](C)[C@@H](CO)NS(=O)(=O)c1ccccc1F [Example 11, 2-fluoro-N-[(1S,2S)-1-(hydroxymethyl)-2-methylbutyl]benzenesulfonamide]",(%)APPI Toxicity,[1]; Conc 20 μg/ml,1 (1=non-toxic)
same,fold induction at 20 µg/mL,[2]; [5],2.3
"CC[C@H](C)[C@@H](CO)NS(=O)(=O)c1cccc2ccccc12 [Example 12, N-[(1S,2S)-1-(hydroxymethyl)-2-methylbutyl]naphthalene-1-sulfonamide]",(%)APPI Toxicity,[1]; Conc 20 μg/ml,1 (1=non-toxic)
same,fold induction at 20 µg/mL,[2]; [5],2.9
"CC[C@H](C)[C@@H](CO)NS(=O)(=O)c1ccc2ccccc2c1 [Example 13, N-[(1S,2S)-1-(hydroxymethyl)-2-methylbutyl]naphthalene-2-sulfonamide]",(%)APPI Toxicity,[1]; Conc 20 μg/ml,1 (1=non-toxic)
same,fold induction at 20 µg/mL,[2]; [5],1.8
"O=S(=O)(N[C@H](CO)Cc1ccccc1)c1ccc(Br)cc1 [Example 15, N-[(1S)-1-benzyl-2-hydroxyethyl]-4-bromobenzenesulfonamide]",(%)APPI Toxicity,[1]; Conc 20 μg/ml,1 (1=non-toxic)
same,fold induction at 20 µg/mL,[2]; [5],1.5
"O=S(=O)(N[C@H](CO)C1CCCCC1)c1ccc(Br)cc1 [Example 16, 4-Bromo-N-[(1S)-1-cyclohexyl-2-hydroxyethyl]benzenesulfonamide]",(%)APPI Toxicity,[1]; Conc 20 μg/ml,1 (1=non-toxic)
same,fold induction at 20 µg/mL,[2]; [5],2.7
"O=S(=O)(N[C@@H](CO)c1ccc(O)cc1)c1ccc(Br)cc1 [Example 17, 4-bromo-N-[(1R)-2-hydroxy-1-(4-hydroxyphenyl)ethyl]benzenesulfonamide]",(%)APPI Toxicity,[1]; Conc 20 μg/ml,1 (1=non-toxic)
same,fold induction at 20 µg/mL,[2]; [5],2.2
"CC(C)C[C@@H](CO)NS(=O)(=O)c1ccc(Br)cc1 [Example 18, 4-bromo-N-[(1S)-1-(hydroxymethyl)-3-methylbutyl]benzenesulfonamide]",(%)APPI Toxicity,[1]; Conc 20 μg/ml,1 (1=non-toxic)
same,fold induction at 20 µg/mL,[2]; [5],1.9
"O=S(=O)(N[C@H](CO)Cc1cc2ccccc2[nH]1)c1ccc(Br)cc1 [Example 19, 4-bromo-N-[(1S)-2-hydroxy-1-(1H-indol-2-ylmethyl)ethyl]benzenesulfonamide]",(%)APPI Toxicity,[1]; Conc 20 μg/ml,1 (1=non-toxic)
same,fold induction at 20 µg/mL,[2]; [5],1.6
"CC[C@H](C)[C@@H](CO)NS(=O)(=O)c1cc(F)c(Br)cc1F [Example 20, 4-Bromo-2,5-difluoro-N-[(1S,2S)-1-(hydroxymethyl)-2methylbutyl]benzenesulfonamide]",(%)APPI Toxicity,[1]; Conc 20 μg/ml,1 (1=non-toxic)
same,fold induction at 20 µg/mL,[2]; [5],3.3
"CC[C@H](C)[C@@H](CO)NS(=O)(=O)c1cc(Br)ccc1Br [Example 21, 2,5-dibromo-N-[(1S,2S)-1-(hydroxymethyl)-2-methylbutyl]benzenesulfonamide]",(%)APPI Toxicity,[1]; Conc 20 μg/ml,1 (1=non-toxic)
same,fold induction at 20 µg/mL,[2]; [5],1.6
"CC[C@H](C)[C@@H](CO)NS(=O)(=O)c1ccc(Br)c(Br)c1 [Example 22, 3,4-dibromo-N-[(1S,2S)-1-(hydroxymethyl)-2-methylbutyl]benzenesulfonamide]",(%)APPI Toxicity,[1]; Conc 20 μg/ml,1 (1=non-toxic)
same,fold induction at 20 µg/mL,[2]; [5],1.7
